Data as given in a melting point compilation (Tetko et al.; mined from patent text by program, amines drawn as free bases though some values may be those of a salt).

Row | melting point [°C] | SMILES
1 | 213 to 215 | CNC(=O)c1ccc(-c2ccc3nnn(Cc4c(F)ccc(F)c4Cl)c3n2)cc1F
2 | 170 to 174 | COC1CN(S(=O)(=O)c2ccc(Cl)c(C(=O)O)c2)CCC1O (stereo not given)
3 | 101 to 104 | O=C(Nc1ccc(OC(F)(F)F)cc1)N1CC(c2cc(C(F)(F)F)ns2)C(c2ccc(Cl)cc2)=N1 (stereo not given)
4 | 57 to 59 | CCCCCCNC(=O)n1nc(Oc2ncc(C(F)(F)F)cc2Cl)c(Cl)c1C
5 | 160 to 162 | COc1ccc(C2SCC(C(=O)O)N2C(=O)OC(C)(C)C)cc1 (stereo not given)
6 | 156 to 158 | CCOP(=O)(CC(Nc1cccnc1)c1cc(C)c(O)c(OC)c1)OCC (stereo not given)
7 | 128 to 129 | CC(C)Oc1c(C(=O)O)sc2c1CN(C(=O)OC(C)(C)C)CC2
8 | 115 to 117 | N#CC1Sc2ccccc2N1C(=O)c1ccc(Cl)cc1 (stereo not given)
9 | 183 to 185 | CCCC(=O)c1cnc2c(C(C)=O)cccc2c1Nc1ccc(O)cc1C
10 | 55 to 60 | CC(C)(C)C1=CC(=O)C=CC1=O
11 | 117 to 118 | CCCCc1nc2ccccc2n1Cc1ccc(-c2ccccc2C=O)cc1
12 | 158 | O=C(/C=C/c1ccc(C(=O)Nc2cccc(Nc3nc(-c4cccnc4)cs3)c2)cc1)NOC1CCCCO1 (stereo not given)
13 | 83 to 86 | COC(=O)CCCCCNC(=O)C(CO)NS(=O)(=O)c1ccc(Cl)cc1 (racemic)
14 | 296 to 297 | O=c1cc(-c2ccc(O)nc2)oc2ccccc12
15 | 79 to 81 | Cc1oc(-c2ccccc2)nc1CCOc1ccc(C=O)cc1
16 | 204 to 206 | O=S(=O)(Nc1ccc2cnccc2c1)c1ccccc1
17 | 180 to 184 | CC(C)(C)c1ccc(-c2sc(N)c(C(=O)c3ccc(Cl)cc3)c2CN(C2CCCCC2)C2CCCCC2)cc1
18 | 172 to 174 | CCC(CC)NC(=O)C(C)(C)COc1cccc2nc(C)c(C(=O)O)c(N)c12
19 | 72 to 75 | c1ccc(COc2ccc(NC3Cc4ccccc4C3)cc2)cc1
20 | 95 to 97 | CCC(c1ccc(-c2ccc(Cl)cc2)cc1)N1CCNCC1 (stereo not given)
21 | 300 to 302 | Cc1ccccc1-c1cc2cnc(N)nc2nc1N
22 | 172 to 173 | CN1Cn2ncc([N+](=O)[O-])c2-c2ccccc21
23 | 190 to 192 | O=C(c1ccccc1)N1CCN(c2ccccc2)CCN1C(=O)c1ccccc1

Row | melting point [°C] | SMILES
24 | 130 to 134 | CCC1=NC=C(c2ccc3c(c2)NC(=O)CO3)C(c2ccccc2)S1 (stereo not given)
25 | 154 to 155 | CC1CCN(CC#CCN2C(=O)c3cccc4c3N(CC4)c3ccc(Br)cc32)CC1
26 | 257 to 258 | Cn1cncc1CCNC(=O)c1[nH]c2ccc(Cl)cc2c1S(=O)(=O)c1ccccc1
27 | 203 to 205 | CCCn1nc2c(N)nc3ccccc3c2c1CC(C)(C)NC(=O)c1cccnc1
28 | > 300 | CSc1sc(C(N)=O)c2c1-c1oc(C)nc1CC2
29 | 212 to 214 | Cc1c(NC(=O)NC(C)(C)C)c(C)c2c(c1C(C)O)OCC2c1ccc(C(C)C)cc1 (stereo not given)
30 | 119 to 120 | CCCCCCCCCCCCn1nnc(C(C(=O)Nc2c(OC)cc(OC)cc2OC)c2ccccc2)n1 (stereo not given)
31 | 198 to 200 | CCCOCCSc1ccc(-c2ccc3c(c2)C=C(C(=O)Nc2ccc(CN(C)C4CCOCC4)cc2)CCS3(=O)=O)cc1
32 | 373 | O=C1c2nccnc2C(=O)N1c1ccc2ccc(O)nc2n1
33 | 224 to 226 | CC1CNCCN1c1c(F)c(N)c2c(=O)c(C(=O)O)cn(C3CC3)c2c1F (stereo not given)
34 | 195 to 205 | CC(C)(C(=O)O)c1cn2nc(CCCN3CCC(OC(c4ccccc4)c4ccccc4)CC3)ccc2n1
35 | 103 to 104 | CCOC(=O)COc1cc2c(c(O)c1Cl)C(=O)CC1(CCCCC1)O2
36 | 74 to 75 | COc1cc(C=O)ccc1OCCCCCCOC(C)=O
37 | 234 | Cc1[nH]c(=S)n(Nc2cccc(Cl)c2)c1C
38 | 225 to 227 | CC(C)(C)n1nc(Nc2ccccc2)c(C(N)=O)c1N
39 | 216 to 218 | CCOC(=O)c1cn(C2CC2)c2c(CO)c(N3CCN(C)CC3)c(F)cc2c1=O
40 | 78 to 80 | COC(=O)c1c(OC)ccc(N)c1OC
41 | 153 to 155 | CCOP(=O)(/C=C/c1cn(-c2ccccc2)nc1OCc1ccc(OCc2nc(-c3cccc(C(=O)O)c3)oc2C)cc1)OCC
42 | 159 to 160 | COc1ccc([C@@H]2Sc3ccccc3N(CCN(C)C)C(=O)[C@@H]2OC(=O)c2cc(Cl)ccc2[N+](=O)[O-])cc1
43 | 180 to 182 | CN(C(=O)c1ccc(N)cc1)[C@@H]1CN(C2CCCCC2)C[C@H]1O (relative stereo)
44 | 132 to 133 | CN1C(=NC(=O)c2ccc(F)cc2)C(C(F)(F)F)(C(F)(F)F)NC1c1ccc(F)cc1 (stereo not given)
45 | 65 to 67 | CCOC(=O)C1CC2CCC(=O)N2C1=O (stereo not given)
46 | 254 to 257 | O=C(c1cc(-c2ccccc2)c(=O)n2c1-c1ccccc1CN2)N1CCOCC1

Row | melting point [°C] | SMILES
47 | 67 to 71 | CCOC(=O)Cc1cnc(NC(C)C)nc1Cl
48 | 151 to 152 | CCOC(=O)c1ccc(/C=C/c2ccc3c(c2)C(C)(C)CC3(C)C)cc1
49 | 85 to 86 | O=C(NCCc1ccc(F)cc1)c1ccc(S(=O)(=O)Nc2ccccc2C(=O)O)cc1
50 | 191 to 193 | CC=CC(=O)N1CCN(NC(=O)c2ccc(F)cc2)CC1
51 | 124 | CCOC(=O)c1cnc2c(c1)C(=O)C=CC2=O
52 | 110 to 114 | COc1ccc(-c2nc(-c3cccs3)c[nH]2)cc1C
53 | 92 to 93 | CO[C@@H]1c2ccn3c(C)c(C)nc3c2N[C@H](c2ccccc2)[C@H]1OC(=O)c1ccccc1
54 | 75 to 76 | COc1cc(N2CCC(N3CCN(C(=O)OCc4ccccc4)CC3)CC2)ccc1Nc1ncc2ccc(-c3ccccc3OC)n2n1
55 | 103 to 108 | Cc1c(C)c(O)c(CN(C)C)c(C)c1O
56 | 119 to 120 | CC(C)c1nn(-c2ccc(C(F)(F)F)cn2)cc1CCCCOc1nn(-c2ccccc2)cc1CC(=O)O
57 | 117 to 119 | COc1ccc(N(Cc2cccnc2)S(C)(=O)=O)c(OC)c1
58 | 160 | CC(C)(C)OC(=O)[C@H]1C[C@H](C(=O)Nc2ccccc2)[C@@H](c2ccccc2)N1C(=O)CNC(=O)Nc1cccc(C(=O)O)c1 (racemic)
59 | 128 to 130 | CN1CCC(Oc2cc3ccccc3cc2C(N)=O)C1 (stereo not given)
60 | 100 | Nc1c(CO)cccc1[N+](=O)[O-]
61 | 143 to 147 | C=CS(=O)(=O)C(C(=O)NC)S(=O)(=O)C=C
62 | 119 to 122 | FC(F)(F)Oc1ccc(Nc2nc(Cl)nc(Cl)n2)cc1
63 | 175 to 177 | CCOC(=O)C1CCCN(C(=O)C2CCC(Nc3nccc(-n4ccc5c(OCCCS(C)(=O)=O)cccc54)n3)CC2)C1 (stereo not given)
64 | 106 | CCOC(=O)C(=CNc1scc(C)c1C(=O)OC)C(=O)OCC
65 | 81 to 82 | OCCOc1ccc(Cn2ccnc2)cc1
66 | 138 to 139 | N#CC(C#N)=CN(N=C(C#N)C#N)c1ccc(F)cc1
67 | 203 to 206 | CC1CN(c2cc3c(cc2F)c(=O)c(C(=O)O)cn3C2CC2)CCN1CCC#N (stereo not given)
68 | 167 to 170 | COc1ccc2c(c1)CC(C)C1C2CCC2(C)C(=O)CCC12 (stereo not given)

Row | SMILES | melting point [°C]
69 | CCCCS(=O)(=O)NC(=O)N1CC1C#N (stereo not given) | 80 to 85
70 | C=C(C(=O)O)c1cc(-c2cc3c(cc2C)C(C)(C)CCC3(C)C)ccc1OCCC | 125 to 126
